Experimental findings from ChEMBL document CHEMBL1151512, “Design and synthesis of new potential photoaffinity labels for mammalian squalene epoxidase” (Bioorg Med Chem Lett, 1997) are described below.

Where only a bound is given, the exact number is not on record here.

This test concerns HepG2. The test can be described thus: In vitro cholesterol biosynthesis inhibition in human HepG2 by measuring the extend of cholesterol radiolabeling after incubation with [14C]mevalonate. In kind it is functional, cell-based.

Consider `CCN(CC#Cc1ccccc1)Cc1cccc(OCc2cc(-c3ccsc3)cs2)c1`, for which inhibition was half-maximal at 70 nM (IC50).
Take `CCN(C/C=C/C#CC(C)(C)C)Cc1cccc(OC[Si](C)(C)c2ccc(C#N)cc2)c1`: the IC50 was 60 nM.
The same measure for `CCN(CC#Cc1ccccc1N=[N+]=[N-])Cc1cccc(OCc2cc(-c3ccsc3)cs2)c1`: > 100000 nM.
The same measure for `CCN(C/C=C/C#CC(C)(C)C)Cc1cccc(OC[Si](C)(C)c2ccc(N=[N+]=[N-])cc2)c1`: 1200 nM; for `CCN(CC#Cc1cccc(N=[N+]=[N-])c1)Cc1cccc(OCc2cc(-c3ccsc3)cs2)c1`: 540 nM.
The same measure for `CCN(CC#Cc1ccc(N=[N+]=[N-])cc1)Cc1cccc(OCc2cc(-c3ccsc3)cs2)c1`: 2100 nM.

Usually IC50 stands for the concentration needed to halve the response being measured. A lower IC50 goes with inhibition by little substance.
